The numbers were not newly measured in patent US9730899B2, “Controlled release pharmaceutical composition with resistance against the influence of ethanol employing a coating comprising neutral vinyl polymers and excipients” (Evonik Roehm GmbH, priority 2009, dated 2017), which cites them from elsewhere.

For this data set the following is noted: USP classification, between 15° C. and 25° C.

Structures can show the parent of a compound that is named as a salt. Where two headings read alike, the source gives them in different places.

For `NC(=O)N1c2ccccc2C=Cc2ccccc21` [Carbamazepine], the Solubility in ethanol entry was “Soluble (more than 10 to 30)” and the Solubility in water result is recorded as “Practically insoluble (more than 10.000)”.

Take `COc1ccc([C@@H]2Sc3ccccc3N(CCN(C)C)C(=O)[C@@H]2OC(C)=O)cc1` [Diltiazem HCl]: the Solubility in water entry was “Freely soluble (from 1 to 10)”. For the same compound, the Solubility in ethanol entry (HCl) is “Sparingly soluble (more than 30 to 100)”. In addition, the Solubility in ethanol entry (listed as diltiazem, HCl) is reported as “sparingly soluble”.

For `COCCc1ccc(OCC(O)CNC(C)C)cc1` (centres unmarked) [Metoprolol succinate], the Solubility in ethanol entry was “Sparingly soluble (more than 30 to 100)” and the Solubility in water entry is reported as “Freely soluble (from 1 to 10)”. In addition, the Solubility in ethanol result (listed as metoprolol) is listed as “sparingly soluble”.

On to `C=CCN1CC[C@]23c4c5ccc(O)c4O[C@H]2C(=O)CC[C@@]3(O)[C@H]1C5` [Naloxone], for which the Solubility in ethanol entry is reported as “Slightly soluble (more than 100 to 1000)” and the Solubility in water result is on record as “Soluble (more than 10 to 30)”. In addition, for the setting “listed as naloxone”, the Solubility in ethanol result is “slightly soluble”.

Consider `Cn1c(=O)c2[nH]cnc2n(C)c1=O` [Theophylline], for which the Solubility in ethanol entry is “Sparingly soluble (more than 30 to 100)” and the Solubility in water entry was “Slightly soluble (more than 100 to 1000)”. Further, the Solubility in ethanol entry (listed as theophyllin) was “sparingly soluble”.
